This passage reports % of control, pXC50 and % of inhibition results from ChEMBL document CHEMBL5465560, “Selectivity Literature for EUbOPEN Chemogenomic Library” (2024).

Assay [1] has as its target Ribosomal protein S6 kinase alpha-4 (Homo sapiens) (UniProt O75676). Description: Selectivity interaction (KinomeScan (DiscoverX)) EUB0000092b RPS6KA4. Particulars: at 10 µM.
In assay [2] the target is Maternal embryonic leucine zipper kinase (Homo sapiens) (UniProt Q14680). Description: Selectivity interaction (KinomeScan (DiscoverX)) EUB0000655a MELK. Particulars: at 10 µM.
Chain of Maternal embryonic leucine zipper kinase (Homo sapiens) (Q14680 whole entry, looked up): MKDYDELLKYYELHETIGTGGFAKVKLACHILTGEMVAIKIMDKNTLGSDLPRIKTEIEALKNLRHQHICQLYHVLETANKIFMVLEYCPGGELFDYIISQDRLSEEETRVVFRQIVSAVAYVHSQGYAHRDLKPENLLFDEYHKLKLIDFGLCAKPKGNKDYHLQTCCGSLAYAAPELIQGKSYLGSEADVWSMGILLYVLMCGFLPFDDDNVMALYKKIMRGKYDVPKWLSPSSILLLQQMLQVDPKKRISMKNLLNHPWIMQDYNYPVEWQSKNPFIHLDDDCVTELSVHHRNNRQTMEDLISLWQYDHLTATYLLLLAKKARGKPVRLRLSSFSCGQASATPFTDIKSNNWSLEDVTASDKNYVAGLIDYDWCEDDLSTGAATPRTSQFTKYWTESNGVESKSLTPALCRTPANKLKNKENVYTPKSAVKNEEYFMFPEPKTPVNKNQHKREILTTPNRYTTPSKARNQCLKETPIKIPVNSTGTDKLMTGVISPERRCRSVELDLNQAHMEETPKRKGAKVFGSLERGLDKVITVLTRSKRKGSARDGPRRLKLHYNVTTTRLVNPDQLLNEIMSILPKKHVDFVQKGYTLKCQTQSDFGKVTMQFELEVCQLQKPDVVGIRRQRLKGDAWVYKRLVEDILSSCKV
The target in assay [3] is T1, 5-hydroxytryptamine receptor 2C (Homo sapiens) (UniProt P28335).
T1 sequence (whole entry): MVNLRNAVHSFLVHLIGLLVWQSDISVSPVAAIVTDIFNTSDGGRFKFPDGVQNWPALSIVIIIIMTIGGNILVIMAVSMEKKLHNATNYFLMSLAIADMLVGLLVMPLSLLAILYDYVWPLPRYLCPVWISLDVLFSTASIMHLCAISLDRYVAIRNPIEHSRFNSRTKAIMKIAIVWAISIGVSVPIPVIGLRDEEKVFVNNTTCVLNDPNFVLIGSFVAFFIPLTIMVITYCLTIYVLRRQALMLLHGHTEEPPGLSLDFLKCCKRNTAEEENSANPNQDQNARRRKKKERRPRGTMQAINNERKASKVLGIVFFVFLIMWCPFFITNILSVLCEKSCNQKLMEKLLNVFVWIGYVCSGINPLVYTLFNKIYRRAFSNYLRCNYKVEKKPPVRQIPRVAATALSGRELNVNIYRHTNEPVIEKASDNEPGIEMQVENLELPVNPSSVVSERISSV
Description: Selectivity interaction (Panel of kinases, GPCRs, ion channels and transporters (enzymatic assay)) EUB0000223bCl HTR2C.

The target of assay [4] is T2, Prostaglandin G/H synthase 2 (Homo sapiens) (UniProt P35354).
T2 sequence (whole entry): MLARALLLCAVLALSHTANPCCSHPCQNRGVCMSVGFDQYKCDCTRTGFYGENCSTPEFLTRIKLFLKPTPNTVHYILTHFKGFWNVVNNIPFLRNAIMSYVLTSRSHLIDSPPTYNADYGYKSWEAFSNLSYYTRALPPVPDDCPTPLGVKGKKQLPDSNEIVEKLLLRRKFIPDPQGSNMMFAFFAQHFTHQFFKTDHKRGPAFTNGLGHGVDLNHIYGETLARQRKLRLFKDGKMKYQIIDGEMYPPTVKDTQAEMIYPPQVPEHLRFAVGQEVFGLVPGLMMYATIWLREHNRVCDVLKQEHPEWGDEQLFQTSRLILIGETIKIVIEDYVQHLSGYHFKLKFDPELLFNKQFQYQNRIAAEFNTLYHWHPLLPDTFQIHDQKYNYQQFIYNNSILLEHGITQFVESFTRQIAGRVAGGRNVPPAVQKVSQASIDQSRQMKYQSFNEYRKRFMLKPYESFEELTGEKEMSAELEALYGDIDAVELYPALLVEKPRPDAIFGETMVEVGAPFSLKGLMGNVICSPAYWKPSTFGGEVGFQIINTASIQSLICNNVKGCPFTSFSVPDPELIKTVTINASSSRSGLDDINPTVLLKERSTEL
Description: Selectivity interaction (Panel of kinases, GPCRs, ion channels and transporters (enzymatic assay)) EUB0000223bCl PTGS2.

The target of assay [5] is Casein kinase I isoform gamma-1 (Homo sapiens) (UniProt Q9HCP0). Description: Selectivity interaction (KinomeScan (DiscoverX)) EUB0000045b CSNK1G1.
Chain of Casein kinase I isoform gamma-1 (Homo sapiens) (Q9HCP0 whole entry, looked up, canonical isoform): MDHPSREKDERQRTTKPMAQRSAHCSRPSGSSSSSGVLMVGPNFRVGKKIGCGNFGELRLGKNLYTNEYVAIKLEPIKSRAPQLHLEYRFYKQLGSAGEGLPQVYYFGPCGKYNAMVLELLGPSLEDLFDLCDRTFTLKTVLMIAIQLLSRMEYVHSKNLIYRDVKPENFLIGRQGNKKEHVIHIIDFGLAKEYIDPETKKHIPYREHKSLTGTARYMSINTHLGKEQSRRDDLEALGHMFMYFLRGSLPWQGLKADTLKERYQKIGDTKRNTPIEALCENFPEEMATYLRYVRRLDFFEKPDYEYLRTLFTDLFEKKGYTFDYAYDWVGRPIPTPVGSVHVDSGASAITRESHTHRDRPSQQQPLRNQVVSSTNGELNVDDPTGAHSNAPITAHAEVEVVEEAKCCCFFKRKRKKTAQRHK
Assay [6] deals with Tyrosine-protein kinase Fyn (Homo sapiens) (UniProt P06241). Description: Selectivity interaction (LanthaScreen Eu Kinase Binding Assay) EUB0001632a FYN. Particulars: at 10 µM.
Chain of Tyrosine-protein kinase Fyn (Homo sapiens) (P06241 2-537 limits assumed): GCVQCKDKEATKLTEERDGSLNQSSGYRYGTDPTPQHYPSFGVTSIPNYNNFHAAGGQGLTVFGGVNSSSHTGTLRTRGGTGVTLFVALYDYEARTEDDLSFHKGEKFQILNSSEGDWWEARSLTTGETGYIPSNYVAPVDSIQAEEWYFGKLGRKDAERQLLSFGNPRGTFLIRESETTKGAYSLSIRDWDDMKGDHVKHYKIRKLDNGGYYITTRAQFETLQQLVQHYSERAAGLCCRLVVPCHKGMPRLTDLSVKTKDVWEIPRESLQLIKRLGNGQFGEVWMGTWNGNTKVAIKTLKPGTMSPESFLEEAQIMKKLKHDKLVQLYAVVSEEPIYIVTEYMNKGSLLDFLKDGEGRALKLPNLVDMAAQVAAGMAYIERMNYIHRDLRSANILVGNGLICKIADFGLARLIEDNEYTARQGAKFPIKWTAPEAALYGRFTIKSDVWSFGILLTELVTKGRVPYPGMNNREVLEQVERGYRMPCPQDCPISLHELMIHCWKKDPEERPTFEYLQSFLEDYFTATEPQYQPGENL
Assay [7] deals with T3, Serine/threonine-protein kinase RIO1 (Homo sapiens) (UniProt Q9BRS2).
T3 sequence (whole entry): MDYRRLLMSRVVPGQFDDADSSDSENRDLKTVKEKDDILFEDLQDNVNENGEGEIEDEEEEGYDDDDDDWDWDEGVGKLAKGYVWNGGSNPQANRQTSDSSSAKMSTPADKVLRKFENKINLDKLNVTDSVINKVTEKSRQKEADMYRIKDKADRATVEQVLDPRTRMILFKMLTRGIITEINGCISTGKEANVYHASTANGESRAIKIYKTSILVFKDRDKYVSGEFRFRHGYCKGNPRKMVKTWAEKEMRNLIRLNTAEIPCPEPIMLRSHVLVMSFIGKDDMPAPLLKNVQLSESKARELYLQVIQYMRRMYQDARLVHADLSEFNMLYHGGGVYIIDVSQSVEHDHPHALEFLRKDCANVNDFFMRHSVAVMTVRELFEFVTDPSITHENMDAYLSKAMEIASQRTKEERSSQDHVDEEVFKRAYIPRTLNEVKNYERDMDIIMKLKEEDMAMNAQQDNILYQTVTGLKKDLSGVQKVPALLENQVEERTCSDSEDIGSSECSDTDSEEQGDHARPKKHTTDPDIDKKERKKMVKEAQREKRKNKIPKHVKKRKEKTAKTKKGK
Description: Selectivity interaction (KinomeScan (DiscoverX)) EUB0000618a RIOK1. Particulars: at 10 µM.

Chain of Ribosomal protein S6 kinase alpha-4 (Homo sapiens) (O75676 whole entry, looked up): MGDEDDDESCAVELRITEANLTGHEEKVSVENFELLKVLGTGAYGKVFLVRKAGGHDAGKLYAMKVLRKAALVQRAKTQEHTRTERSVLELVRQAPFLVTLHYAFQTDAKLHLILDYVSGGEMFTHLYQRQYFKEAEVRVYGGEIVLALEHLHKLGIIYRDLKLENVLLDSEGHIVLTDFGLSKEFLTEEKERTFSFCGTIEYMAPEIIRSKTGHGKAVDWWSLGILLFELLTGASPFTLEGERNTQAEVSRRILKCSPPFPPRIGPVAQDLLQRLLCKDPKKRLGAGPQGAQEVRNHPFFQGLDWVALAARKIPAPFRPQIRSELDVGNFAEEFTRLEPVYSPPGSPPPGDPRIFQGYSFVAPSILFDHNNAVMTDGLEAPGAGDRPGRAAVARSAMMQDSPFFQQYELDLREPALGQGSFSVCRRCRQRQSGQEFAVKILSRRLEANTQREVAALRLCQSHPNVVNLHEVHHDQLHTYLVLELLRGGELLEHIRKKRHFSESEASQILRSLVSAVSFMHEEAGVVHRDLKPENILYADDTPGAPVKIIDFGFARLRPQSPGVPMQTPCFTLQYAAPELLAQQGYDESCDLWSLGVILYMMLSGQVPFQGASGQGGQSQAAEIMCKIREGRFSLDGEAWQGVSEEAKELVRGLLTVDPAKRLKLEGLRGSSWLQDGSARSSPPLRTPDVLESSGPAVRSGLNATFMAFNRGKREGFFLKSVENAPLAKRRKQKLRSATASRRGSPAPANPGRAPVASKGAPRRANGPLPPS

For `CCC(=O)N1CCN(c2ccc(-n3c(=O)ccc4cnc5ccc(-c6cnc7ccccc7c6)cc5c43)cc2C(F)(F)F)CC1`, the % of control in assay [1] was 100%.

Turning to `CN(C)CCOc1ccc(-c2nc(-c3ccncc3)c(-c3ccc4c(c3)CC/C4=N\O)[nH]2)cc1`, the % of control in assay [2] was 100%.

With `COc1cc(C(=O)N2CC[C@@H](O)[C@@H](N)C2)cc2nc(-c3cc4ccccc4n3CC3CC3)n(C)c12`, the results for the pXC50 in assay [3] and in assay [4] were less than 4.4 M and less than 4 M, respectively.

On to `C=CC(=O)Nc1cc(-n2c(=O)ccc3cnc4ccc(-c5ccc(NS(C)(=O)=O)cc5)cc4c32)ccc1C`, for which the % of control in assay [5] (at 1 µM) stood at 100%; in assay [5] (at 10 µM), 75%.

Turning to `Cn1cc(-n2cnc3c(NCc4nc5cc(Cl)c(Cl)cc5[nH]4)nc(N4CCOCC4)nc32)cn1`, the % of inhibition in assay [6] is -11.6%.

Turning to `O[C@H]1CC[C@H](Nc2ncc3nc(Nc4c(F)cc(F)cc4F)n([C@H]4CCOC4)c3n2)CC1`, in assay [7], the % of control was 100%.
